In patent publication US12528814B2, “Bifunctional degraders of interleukin-1 receptor-associated kinases and therapeutic use thereof” (NURIX THERAPEUTICS, INC., priority 2020, dated 2026):

Columns and labels:
IRAK4 [1] = target: T1, IRAK4 (Homo sapiens (Human), UniProt Q9NWZ3); assay: IRAK4 Degradation Competition/Rescue Assay; type: cell-based; conditions: degrader 1 μM; 1 hr pre-treatment with Nedd8i (5 μM) or MG-132 (20 or 50 μM); HiBiT Jurkat clone 8D5
Description: IRAK4 Degradation Competition/Rescue Assay

IRAK4 [2] = target: T1, IRAK4; assay: IRAK4 Degradation HTRF Assay; type: cell-based; conditions: wild-type Jurkat cells, 4 hrs
Method: DMSO was stamped into wells A12-H12 at 400 nL/well (NC, Negative Control, maximum signal). […] Following incubation, plates were centrifuged for 5 min at 1600 rpm. […] Cells were incubated 30 min at room temperature with gentle shaking. 16 μL each lysate was transferred to 96-well detection plate included in Cisbio Total IRAK4 HTRF Assay Kit (cat. no. 63ADK108PEG). To the lysates was added 2 μL each of Total-IRAK4 d2 antibody and Total-IRAK4 Cryptate antibody (Cisbio Total IRAK4 HTRF Assay Kit). Plates were incubated overnight at RT. Fluorescence emission at 665 nm and 620 nm was read using an EnVision plate reader. The HTRF Ratio was calculated per sample using the following equation: HTRF Ratio=(665 nm signal/620 nm signal)×10,000

IRAK4 [3] = target: T1, IRAK4; assay: IRAK4 Degradation HiBiT Assay; conditions: for Dmax: Jurkat
GSPT1 = GSPT1 (Homo sapiens (Human), UniProt P15170+Q96SW2); assay: Western Assay for GSPT1 Degradation; type: cell-based; conditions: wild-type Jurkat cells, 24 hrs
GSPT1, sequence (P15170 whole entry): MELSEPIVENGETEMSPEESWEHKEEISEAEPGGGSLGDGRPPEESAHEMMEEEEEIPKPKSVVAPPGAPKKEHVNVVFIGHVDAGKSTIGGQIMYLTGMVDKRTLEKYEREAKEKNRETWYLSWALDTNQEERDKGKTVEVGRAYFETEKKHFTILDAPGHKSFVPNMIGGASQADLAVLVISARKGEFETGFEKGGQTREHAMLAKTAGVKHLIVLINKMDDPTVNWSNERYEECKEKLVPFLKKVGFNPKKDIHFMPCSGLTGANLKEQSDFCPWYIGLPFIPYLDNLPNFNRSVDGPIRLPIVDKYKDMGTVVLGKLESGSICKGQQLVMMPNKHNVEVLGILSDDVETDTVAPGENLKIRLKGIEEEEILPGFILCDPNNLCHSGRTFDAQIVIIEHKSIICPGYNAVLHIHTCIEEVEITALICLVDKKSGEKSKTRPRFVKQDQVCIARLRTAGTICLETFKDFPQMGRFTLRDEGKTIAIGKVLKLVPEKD
GSPT1, sequence (Q96SW2 whole entry): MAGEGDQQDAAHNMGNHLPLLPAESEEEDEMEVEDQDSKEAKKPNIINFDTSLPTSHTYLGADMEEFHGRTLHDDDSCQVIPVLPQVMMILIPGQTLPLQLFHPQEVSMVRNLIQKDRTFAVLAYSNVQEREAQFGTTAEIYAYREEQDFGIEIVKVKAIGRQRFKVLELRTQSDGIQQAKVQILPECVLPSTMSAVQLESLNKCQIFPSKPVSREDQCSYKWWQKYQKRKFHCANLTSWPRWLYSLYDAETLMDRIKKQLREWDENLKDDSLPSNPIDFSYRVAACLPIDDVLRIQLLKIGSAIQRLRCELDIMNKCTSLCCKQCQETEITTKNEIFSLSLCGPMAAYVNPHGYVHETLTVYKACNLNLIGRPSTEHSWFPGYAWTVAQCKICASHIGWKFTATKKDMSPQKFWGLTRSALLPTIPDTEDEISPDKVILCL
GSPT1, sequence (Q16531 whole entry partner): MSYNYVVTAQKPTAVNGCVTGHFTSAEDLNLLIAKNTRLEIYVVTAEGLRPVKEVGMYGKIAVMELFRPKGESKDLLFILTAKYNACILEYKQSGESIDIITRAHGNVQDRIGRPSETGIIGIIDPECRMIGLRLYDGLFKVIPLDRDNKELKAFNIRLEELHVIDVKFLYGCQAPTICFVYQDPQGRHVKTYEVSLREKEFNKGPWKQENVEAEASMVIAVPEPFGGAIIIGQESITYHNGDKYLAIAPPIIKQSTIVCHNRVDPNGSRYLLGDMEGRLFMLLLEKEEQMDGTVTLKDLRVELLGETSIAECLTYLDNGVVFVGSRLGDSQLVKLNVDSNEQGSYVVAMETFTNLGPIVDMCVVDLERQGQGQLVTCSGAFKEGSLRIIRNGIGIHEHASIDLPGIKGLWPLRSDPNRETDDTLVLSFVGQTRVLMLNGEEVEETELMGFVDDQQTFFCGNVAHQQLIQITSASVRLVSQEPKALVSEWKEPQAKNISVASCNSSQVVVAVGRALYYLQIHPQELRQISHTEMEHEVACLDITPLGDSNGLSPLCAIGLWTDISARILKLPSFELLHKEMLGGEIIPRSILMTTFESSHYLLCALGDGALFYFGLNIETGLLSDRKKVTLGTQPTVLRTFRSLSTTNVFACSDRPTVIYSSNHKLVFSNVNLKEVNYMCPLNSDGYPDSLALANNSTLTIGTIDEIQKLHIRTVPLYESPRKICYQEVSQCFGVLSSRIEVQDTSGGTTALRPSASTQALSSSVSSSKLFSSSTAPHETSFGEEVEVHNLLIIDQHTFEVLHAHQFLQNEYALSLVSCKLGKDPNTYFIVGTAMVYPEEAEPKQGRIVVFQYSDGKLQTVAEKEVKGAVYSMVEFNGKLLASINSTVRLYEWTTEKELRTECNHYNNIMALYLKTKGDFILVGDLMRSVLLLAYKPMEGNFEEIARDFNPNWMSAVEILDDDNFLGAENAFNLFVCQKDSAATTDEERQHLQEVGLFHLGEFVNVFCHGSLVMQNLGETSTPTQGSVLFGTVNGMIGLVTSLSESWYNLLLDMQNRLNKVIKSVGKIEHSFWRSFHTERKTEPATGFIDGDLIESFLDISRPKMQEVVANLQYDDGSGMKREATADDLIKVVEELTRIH
Method: Biological Example 4 Western Assay for IRAK4, IRAK1 and GSPT1 Degradation
DMSO was stamped into wells A12-H12 at 500 nL/well (NC, Negative Control, maximum signal). […] Following incubation, plates were centrifuged for 5 min at 1600 rpm. Media was removed and cell pellets were lysed in 50 μL lysis buffer (RIPA buffer (Fisher, PI89901), cOmplete Mini EDTA-free protease inhibitor (Sigma 11836170001), Protease Inhibitor Cocktail (Sigma, P2714), Phosphatase Inhibitor Cocktail 2 and 3 (Sigma, P5726 and P0044), Benzonase (Sigma, E1014)). Cells were lysed overnight at −20° C. Plates were centrifuged for 5 min at 1600 rpm and lysate supernatants were transferred to storage plates. Protein levels were determined by BCA Assay performed according to manufacturer's protocol (EMD Millipore, cat. no. 71285-3). Samples were combined with (4×) LDS Sample Buffer and (10×) Reducing Agent and H2O to equally load 10 ug protein per lane of a 26-well NuPAGE 4-12% Bis-Tris protein gel (1.0 mm, Thermo cat. no. NP0326). Samples were separated by running gels at constant 200 V in NuPAGE MES SDS Running Buffer. Following electrophoresis, proteins were transferred to nitrocellulose membranes using an iBlot Gel Transfer Device and iBlot Gel Transfer Stacks (Thermo cat. no. IB21001 and IB301001) and transfer method PO (20V 1 min, 23V 4 min, 25V 2 min). Membranes were blocked for 1 hr in 5% milk solution (TBS (0.2% Tween-20)).
Following blocking, membranes were incubated with primary antibody overnight at 4° C. with gentle shaking. The primary antibodies and dilutions used were as follows: IRAK4—abcam ab3200612, 1:500; IRAK1—Cell Signaling Technologies D51G7 #4504, 1:500; GSPT1—Cell Signaling Technologies #14980, 1:500). Blots were washed 3× in TBS (0.2% Tween-20), 5-10 min per wash. Following washes, blots were incubated in secondary HRP-conjugated antibody (Promega anti-Rabbit IgG (H+L) HRP, cat. no. W4011), 1:5000 in 5% milk solution (TBS (0.2% Tween-20)), for 1 hr at room temperature with gentle shaking. Blots were washed 3× in TBS (0.2% Tween-20), 5-10 min per wash. Blots were incubated with 1:1 mix of ECL reagents 1 & 2 (Amersham ECL Western Blotting Detection Reagent, cat. no. RPN2106) for 2-3 min at room temperature. Bands were visualized using a Protein Simple imager. Blots were then re-probed with a combination of anti-actin antibody (Sigma Monoclonal Mouse Anti-3-Actin (clone AC-15), cat. no. A5441) and secondary HRP-conjugated antibody (Promega anti-Mouse IgG (H+L) HRP, cat. no. W4021) and similar steps were taken for incubation, wash, detection and visualization steps as above. The data was analyzed using Alpha View software. The densitometric reading for each sample band was normalized to that of the corresponding actin band per lane.

IRAK4 [4] = target: T1, IRAK4; assay: Western Assay for IRAK4 Degradation; type: cell-based; conditions: wild-type Jurkat cells, 4 hrs; approximate
Method: DMSO was stamped into wells A12-H12 at 500 nL/well (NC, Negative Control, maximum signal). […] Following incubation, plates were centrifuged for 5 min at 1600 rpm. […] Cells were lysed overnight at −20° C. Plates were centrifuged for 5 min at 1600 rpm and lysate supernatants were transferred to storage plates. […] Samples were separated by running gels at constant 200 V in NuPAGE MES SDS Running Buffer. Following electrophoresis, proteins were transferred to nitrocellulose membranes using an iBlot Gel Transfer Device and iBlot Gel Transfer Stacks (Thermo cat. no. IB21001 and IB301001) and transfer method PO (20V 1 min, 23V 4 min, 25V 2 min). Membranes were blocked for 1 hr in 5% milk solution (TBS (0.2% Tween-20)).
Following blocking, membranes were incubated with primary antibody overnight at 4° C. with gentle shaking. […] Blots were washed 3× in TBS (0.2% Tween-20), 5-10 min per wash. Following washes, blots were incubated in secondary HRP-conjugated antibody (Promega anti-Rabbit IgG (H+L) HRP, cat. no. W4011), 1:5000 in 5% milk solution (TBS (0.2% Tween-20)), for 1 hr at room temperature with gentle shaking. Blots were washed 3× in TBS (0.2% Tween-20), 5-10 min per wash. Blots were incubated with 1:1 mix of ECL reagents 1 & 2 (Amersham ECL Western Blotting Detection Reagent, cat. no. RPN2106) for 2-3 min at room temperature. Bands were visualized using a Protein Simple imager. […] The data was analyzed using Alpha View software. The densitometric reading for each sample band was normalized to that of the corresponding actin band per lane.

[5] = read-out: IRAK4 HiBit Dmax, C-terminal HiBiT-tagged Jurkat cells, 4 hrs, Tables 2-3
[6] = read-out: IRAK4 HiBit DC50, C-terminal HiBiT-tagged Jurkat cells, 4 hrs, Tables 2-3
[7] = read-out: Cellular IRAK4 HiBiT: Dmax, Table 4, HiBiT-tagged Jurkat cells, 4 hrs
[8] = read-out: Cellular IRAK4 HiBiT: Dmax, Table 5, multiple runs, HiBiT-tagged Jurkat cells, 4 hrs
[9] = read-out: Cellular IRAK4 HiBiT: DC50, Table 4, HiBiT-tagged Jurkat cells, 4 hrs
[10] = read-out: Cellular IRAK4 HiBiT: DC50, Table 5, multiple runs, HiBiT-tagged Jurkat cells, 4 hrs

T1 sequence (Q9NWZ3 whole entry): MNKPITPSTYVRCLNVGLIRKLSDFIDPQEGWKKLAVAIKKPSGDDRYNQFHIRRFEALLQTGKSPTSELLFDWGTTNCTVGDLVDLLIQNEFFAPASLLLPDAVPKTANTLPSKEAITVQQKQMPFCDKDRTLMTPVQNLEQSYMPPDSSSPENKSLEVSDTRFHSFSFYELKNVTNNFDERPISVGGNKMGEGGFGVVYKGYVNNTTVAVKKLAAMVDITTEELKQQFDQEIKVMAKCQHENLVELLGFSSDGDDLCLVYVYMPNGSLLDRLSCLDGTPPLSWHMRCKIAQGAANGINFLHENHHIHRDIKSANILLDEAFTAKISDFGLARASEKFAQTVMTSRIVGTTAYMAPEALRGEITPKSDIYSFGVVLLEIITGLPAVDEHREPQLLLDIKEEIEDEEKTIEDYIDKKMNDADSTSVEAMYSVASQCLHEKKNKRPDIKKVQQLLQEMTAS

Rescue by proteasome or Nedd8 inhibition (IRAK4 [1]) | DC50 (IRAK4 [2]) | Dmax (IRAK4 [2]) | Dmax (IRAK4 [3]; [5]) | DC50 (IRAK4 [3]; [6]) | DC50 (GSPT1) | DC50 (IRAK4 [4]) | Dmax (IRAK4 [4]) | Dmax (IRAK4 [3]; [7]) | Dmax (IRAK4 [3]; [8]) | DC50 (IRAK4 [3]; [9]) | DC50 (IRAK4 [3]; [10]) | SMILES | IRAK4 degradation by HTRF, in words (IRAK4 [2])
YES | 400 nM | 100% | 100% | 590 nM | > 10000 nM | 200 nM | 86% | 100% | 100% | 590 nM | 235 nM | Cc1ncsc1-c1ccc(CNC(=O)[C@@H]2C[C@@H](O)CN2C(=O)[C@@H](NC(=O)CCCC(=O)N2CCN(c3nnc(-c4cnc(-c5ccc6cc(C#N)cnn56)cc4NC(C)C)s3)CC2)C(C)(C)C)cc1 [Example 35, (2S,4R)-1-((S)-2-(5-(4-(5-(6-(3-cyanopyrrolo[1,2-b]pyridazin-7-yl)-4-(isopropylamino)pyridin-3-yl)-1,3,4-thiadiazol-2-yl)piperazin-1-yl)-5-oxopentanamido)-3,3-dimethylbutanoyl)-4-hydroxy-N-(4-(4-methylthiazol-5-yl)benzyl)pyrrolidine-2-carboxamide] | 
YES | 140 nM | > 100% | 118% | 144 nM | > 10000 nM | 89 nM | 99% | 118% | 118% | 144 nM | 144 nM | Cc1ncsc1-c1ccc(CNC(=O)[C@@H]2C[C@@H](O)CN2C(=O)[C@@H](NC(=O)C2(F)CC2)C(C)(C)C)c(OCCOCCC(=O)N2CCN(c3nnc(-c4cnc(-c5ccc6cc(C#N)cnn56)cc4NC(C)C)s3)CC2)c1 [Example 47, (2S,4R)—N-(2-(2-(3-(4-(5-(6-(3-cyanopyrrolo[1,2-b]pyridazin-7-yl)-4-(isopropylamino)pyridin-3-yl)-1,3,4-thiadiazol-2-yl)piperazin-1-yl)-3-oxopropoxy)ethoxy)-4-(4-methylthiazol-5-yl)benzyl)-1-((S)-2-(1-fluorocyclopropane-1-carboxamido)-3,3-dimethylbutanoyl)-4-hydroxypyrrolidine-2-carboxamide] | maximum IRAK4 degradation among the tested compounds

The remaining lines, values behind:

SMILES | Rescue by proteasome or Nedd8 inhibition (IRAK4 [1]) | DC50 (IRAK4 [2]) | Dmax (IRAK4 [2]) | Dmax (IRAK4 [3]; [5]) | DC50 (IRAK4 [3]; [6]) | DC50 (GSPT1) | DC50 (IRAK4 [4]) | Dmax (IRAK4 [4]) | Dmax (IRAK4 [3]; [7]) | Dmax (IRAK4 [3]; [8]) | DC50 (IRAK4 [3]; [9]) | DC50 (IRAK4 [3]; [10]) | IRAK4 degradation by HTRF, in words (IRAK4 [2])
NC(=O)c1nn(-c2ccc(C(=O)NCCOCCOCCNc3cccc4c3C(=O)N(C3CCC(=O)NC3=O)C4=O)cc2)cc1NC(=O)c1coc(-c2ccnc(NCC(F)(F)F)c2)n1 (centres unmarked) [Comparative Compound a2, reference compound] | YES | 60 nM | 100% | 88% | 26 nM | > 10000 nM | 1 nM | 54% |  |  |  |  | 
CC[C@@H]1[C@H](F)C(=O)N[C@@H]1COc1ncc(C#CCN2CCC3(CC2)CCN(c2ncc(C(=O)N[C@H](C(=O)N4C[C@H](O)C[C@H]4C(=O)NCc4ccc(-c5scnc5C)cc4)C(C)(C)C)cn2)CC3)c2cc(C(N)=O)c(OC)cc12 [Comparative b1, reference compound] | YES | 80 nM | 100% | 95% | 204 nM | > 10000 nM | 70 nM | 86% |  |  |  |  | 
CC(C)Nc1cc(-c2ccc3cc(C#N)cnn23)ncc1-c1nnc(N2CCN(C(=O)C3CCN(Cc4ccc5c(c4)C(=O)N(C4CCC(=O)NC4=O)C5=O)CC3)CC2)s1 (centres unmarked) [Example 13, 7-(5-(5-(4-(1-((2-(2,6-dioxopiperidin-3-yl)-1,3-dioxoisoindolin-5-yl)methyl)piperidine-4-carbonyl)piperazin-1-yl)-1,3,4-thiadiazol-2-yl)-4-(isopropylamino)pyridin-2-yl)pyrrolo[1,2-b]pyridazine-3-carbonitrile] | YES | 50 nM | > 100% | 101% | 26 nM | > 10000 nM | 14 nM | 87% | 101% | 100% | 25.6 nM | 27 nM | 
CC(C)Nc1cc(-c2ccc3cc(C#N)cnn23)ncc1-c1nnc(N2CCN(C(=O)C3CCN(CC4CCN(c5ccc(-c6nn(C7CCC(=O)NC7=O)c(=O)n6C)cc5)CC4)CC3)CC2)s1 (centres unmarked) [Example 24, 7-(5-(5-(4-(1-((1-(4-(1-(2,6-dioxopiperidin-3-yl)-4-methyl-5-oxo-4,5-dihydro-1H-1,2,4-triazol-3-yl)phenyl)piperidin-4-yl)methyl)piperidine-4-carbonyl)piperazin-1-yl)-1,3,4-thiadiazol-2-yl)-4-(isopropylamino)pyridin-2-yl)pyrrolo[1,2-b]pyridazine-3-carbonitrile] | YES | 420 nM | > 100% | 102% | 327 nM | > 10000 nM | 200 nM | 90% | 102% | 112% | 327 nM | 310 nM | 
